In ChEMBL document CHEMBL1201862, “PubChem BioAssay data set” (2004):
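Protocol summary: plate cells (96-well), add compound at 5 concentrations, incubate 48 h, interpolate endpoints linearly. At the GI50, growth is halved.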 Activity calls are given as the source filed them. Cut-off read from the data, not from the text of the source: active = GI50 up to about 1.1 µM and inactive = higher.

Legend:
Assay in all cases: NCI anticancer screen, dose series, 48 h
[1] = test system: BT-549
[2] = test system: CAKI-1
[3] = test system: COLO 205
[4] = test system: DU-145
[5] = test system: EKVX
[6] = test system: HCT-116
[7] = test system: Hs-578T
[8] = test system: IGROV-1
[9] = test system: MCF7
[10] = test system: OVCAR-4
[11] = test system: OVCAR-5
[12] = test system: OVCAR-8
[13] = test system: RPMI-8226
[14] = test system: SF-268
[15] = test system: SK-MEL-2
[16] = test system: SK-OV-3
[17] = test system: T47D
[18] = test system: NCI-H23
[19] = test system: RXF 393
[20] = test system: NCI-H226

Measured: GI50

O=C(c1ccccc1)c1ccc(N2C(=O)/C(=C/Cc3ccco3)N=C2c2ccccc2)c(N2C(=O)/C(=C/Cc3ccco3)N=C2c2ccccc2)c1
inactive: [1] 35.6 µM | [2] 67.5 µM | [3] 38.6 µM | [4] 30 µM | [5] 81.5 µM | [6] 40.2 µM | [7] 25.8 µM | [8] 39.2 µM | [9] 52 µM | [10] 39.9 µM | [11] > 100 µM | [12] 29.3 µM | [13] 27.8 µM | [14] 32.1 µM | [15] 25.5 µM | [16] 30.5 µM | [17] 36.4 µM

CC(C)C1=C(O)C(=O)C2=C(C1=O)C(O)CC1C(C)(C)CCCC21C (stereo unspecified)
inactive: [1] 8.55 µM | [2] 8.05 µM | [3] 12.8 µM | [4] 8.3 µM | [5] 6.56 µM | [6] 4.26 µM | [7] 3.88 µM | [8] 15.8 µM | [9] 5.87 µM | [18] 1.79 µM | [10] 14.6 µM | [11] 20.4 µM | [12] 5.36 µM | [13] 4.65 µM | [19] 2.14 µM | [14] 6 µM | [15] 2.84 µM | [16] 15 µM

COc1cc([C@@H]2c3cc4c(cc3[C@H](OC3OC5COC(C(C)C)OC5C(O)C3O)C3COC(=O)[C@@H]32)OCO4)cc(OC)c1O (stereo partly specified)
inactive: [1] 3.42 µM | [2] 4.27 µM | [3] 6.82 µM | [5] 17.6 µM | [6] 3.85 µM | [7] 9.71 µM | [8] 5.21 µM | [9] 3.6 µM | [20] 5.26 µM | [18] 4.03 µM | [10] 15.1 µM | [11] 12.4 µM | [12] 9.31 µM | [13] 5.2 µM | [19] 4.76 µM | [14] 9.86 µM | [15] 17.3 µM | [16] 17.3 µM | [17] 26.6 µM

CC1CCN(c2nnc(Cl)cc2C(=O)c2ccccc2)CC1
inactive: [1] 30.3 µM | [2] 17.9 µM | [3] 21.9 µM | [4] 38.3 µM | [5] 29.8 µM | [6] 29.6 µM | [7] 20 µM | [8] 35.3 µM | [9] 19.4 µM | [18] 25.5 µM | [10] 29.2 µM | [11] 77.4 µM | [12] 58.7 µM | [19] 16.9 µM | [14] 1.67 µM | [15] 18.5 µM | [17] 31.5 µM

CCC1(CC)C(=O)CC[C@@]2(C)C1=CC[C@H]1[C@@H]3CC[C@H](O)[C@@]3(C)CC[C@@H]12
inactive: [1] > 100 µM | [2] 83.8 µM | [3] 28 µM | [4] 33.8 µM | [5] 28.5 µM | [6] 22.2 µM | [7] 24.4 µM | [8] 37.8 µM | [20] 29 µM | [18] 48.9 µM | [10] 34.8 µM | [11] 53.3 µM | [12] 23.5 µM | [13] 12.1 µM | [19] 36.6 µM | [14] 32.5 µM | [15] 79.3 µM | [16] 46.1 µM | [17] 28.9 µM

O=C(CC(=O)n1nc(-c2ccccc2)c(/N=N/c2ccc(Cl)cc2)c1-c1ccccc1)Nc1cccc(Cl)c1
inactive: [1] > 100 µM | [3] > 100 µM | [5] 25.3 µM | [6] 61.7 µM | [7] > 100 µM | [8] 5.25 µM | [9] > 10 µM | [20] 28.3 µM | [18] > 100 µM | [11] 96.4 µM | [12] 81.1 µM | [13] 65.6 µM | [19] > 100 µM | [15] > 100 µM | [17] > 100 µM

FC(F)=C(c1ccc(-c2ccc(Cl)cc2)cc1)C(F)(F)F
inactive: [1] 18.2 µM | [2] 19.8 µM | [3] 17.9 µM | [4] 18.7 µM | [5] 19.7 µM | [6] 17.5 µM | [7] 26.1 µM | [8] 17 µM | [18] 17.5 µM | [10] 18.5 µM | [11] 17.5 µM | [12] 24.3 µM | [13] 23.3 µM | [19] 20.6 µM | [14] 23.9 µM | [15] 23.7 µM | [16] 21 µM | [17] 28.2 µM

Nc1nc(N)c2c(n1)CCC(S(=O)(=O)c1ccc3ccccc3c1)C2 (stereo unspecified)
inactive: [1] 6.65 µM | [2] 6 µM | [3] 8.38 µM | [4] 9.59 µM | [5] 31.8 µM | [6] 11.6 µM | [9] 10.1 µM | [20] 39.3 µM | [18] 2.53 µM | [11] 87.7 µM | [12] 5.26 µM | [13] 12.5 µM | [14] 11 µM | [16] 33.3 µM | [17] 14.5 µM

O=C1c2ccccc2-c2ccc(/N=N/c3c(O)ccc4ccccc34)cc21
inactive: [1] > 100 µM | [2] > 100 µM | [3] > 100 µM | [4] > 100 µM | [5] > 100 µM | [6] > 100 µM | [7] > 100 µM | [8] > 100 µM | [20] > 100 µM | [18] > 100 µM | [10] > 100 µM | [11] > 100 µM | [12] > 100 µM | [13] > 100 µM | [19] > 100 µM | [14] > 100 µM | [15] > 100 µM | [16] > 100 µM | [17] > 100 µM

O=c1cc2oc3ccc4ccccc4c3cc-2c(=O)[nH]1
inactive: [1] 1.34 µM | [2] 15.3 µM | [3] 15.3 µM | [4] 13.6 µM | [5] 18 µM | [6] 17.1 µM | [7] 24.4 µM | [8] 14.2 µM | [9] 19.1 µM | [18] 1.42 µM | [10] 22.3 µM | [11] 17.6 µM | [12] 1.56 µM | [13] 2.96 µM | [14] 12.7 µM | [15] 17.3 µM | [16] 20.3 µM

O=c1c(-c2ccc3c(c2)OCO3)coc2c3c(ccc12)OCO3
inactive: [1] 15.6 µM | [2] 63.7 µM | [3] > 100 µM | [4] 41.4 µM | [5] 38 µM | [6] 33 µM | [7] 22.3 µM | [8] 20.8 µM | [9] 15.9 µM | [18] 19.2 µM | [10] 24.8 µM | [11] 56.6 µM | [13] > 100 µM | [14] 19.1 µM | [15] 95.9 µM | [16] 18.1 µM | [17] 37.8 µM
